These are literature values, as cited in patent US6509043B1, “Composition comprising soy protein, dietary fibres and a phytoestrogen compound and use thereof in the prevention and/or treatment of pulmonary diseases” (Nutri Pharma ASA, priority 2001, dated 2003).

The subject of this series is estrogenic effect. To be noted: in vitro; reported by Knight (Maturitas 22, 167-175 (1995)).

As for `O=c1c(-c2ccc(O)cc2)coc2cc(O)ccc12` [daidzein], the “relative estrogenic potency as compared to estradiol (relative potency of 100)” value is on record as 0.013.
